Test results reported in ChEMBL document CHEMBL4257522, “Synthesis and preliminary anti-inflammatory and anti-bacterial evaluation of some diflunisal aza-analogs” (Medchemcomm, 2018).
Active and inactive are the calls of the source. The calls are words filed in the database; no cut-off is given here.

Experiments:
Staphylococcus aureus [1] = assay: Potentiation of methicillin-induced antibacterial activity against Staphylococcus aureus ATCC 33592 assessed as minimum modulatory concentration up to 32 uM measured after 16 hrs in presence of MIC/4 methicillin; type: functional; conditions: ATCC 33592, 16 h, read-out: MEC
Enterococcus faecium [2] = assay: Toxicity in Enterococcus faecium ATCC 700221 up to 32 uM measured after 16 hrs; type: organism-based; conditions: in vitro
Streptococcus pyogenes [3] = assay: Potentiation of ciprofloxacin-induced antibacterial activity against Streptococcus pyogenes ATCC 14289 assessed as minimum modulatory concentration up to 32 uM measured after 16 hrs in presence of MIC/4 ciprofloxacin; type: functional; conditions: ATCC 14289, 16 h, read-out: MEC
Streptococcus pyogenes [4] = assay: Potentiation of methicillin-induced antibacterial activity against Streptococcus pyogenes ATCC 14289 assessed as minimum modulatory concentration up to 32 uM measured after 16 hrs in presence of MIC/4 methicillin; type: functional; conditions: ATCC 14289, 16 h, read-out: MEC
Pseudomonas aeruginosa [5] = assay: Potentiation of erythromycin-induced antibacterial activity against Pseudomonas aeruginosa ATCC BAA-2108 assessed as minimum modulatory concentration up to 32 uM measured after 16 hrs in presence of MIC/4 erythromycin; type: functional; conditions: ATCC BAA-2108, 16 h, read-out: MEC
Enterococcus faecium [6] = assay: Potentiation of geneticin-induced antibacterial activity against Enterococcus faecium ATCC 700221 assessed as minimum modulatory concentration up to 32 uM measured after 16 hrs in presence of MIC/4 geneticin; type: functional; conditions: ATCC 700221, 16 h, read-out: MEC
Enterococcus faecium [7] = assay: Potentiation of methicillin-induced antibacterial activity against Enterococcus faecium ATCC 700221 assessed as minimum modulatory concentration up to 32 uM measured after 16 hrs in presence of MIC/4 methicillin; type: functional; conditions: ATCC 700221, 16 h, read-out: MEC
Macrophage cell line [8] = assay: Antiinflammatory activity in human PBMC-differentiated macrophages assessed as inhibition of LPS-induced prostaglandin production at 0.01 to 10 uM measured after 24 hrs by ELISA; type: functional, cell-based
Escherichia coli [9] = assay: Potentiation of geneticin-induced antibacterial activity against Escherichia coli ATCC 43894 assessed as minimum modulatory concentration up to 32 uM measured after 16 hrs in presence of MIC/4 geneticin; type: functional; conditions: ATCC 43894, 16 h, read-out: MEC
Klebsiella pneumoniae [10] = assay: Potentiation of erythromycin-induced antibacterial activity against Klebsiella pneumoniae ATCC 13883 assessed as minimum modulatory concentration up to 32 uM measured after 16 hrs in presence of MIC/4 erythromycin; type: functional; conditions: ATCC 13883, 16 h, read-out: MEC
Escherichia coli [11] = assay: Potentiation of ciprofloxacin-induced antibacterial activity against Escherichia coli ATCC 43894 assessed as minimum modulatory concentration up to 32 uM measured after 16 hrs in presence of MIC/4 ciprofloxacin; type: functional; conditions: ATCC 43894, 16 h, read-out: MEC
Escherichia coli [12] = assay: Potentiation of tetracycline-induced antibacterial activity against Escherichia coli ATCC 43894 assessed as minimum modulatory concentration up to 32 uM measured after 16 hrs in presence of MIC/4 tetracycline; type: functional; conditions: ATCC 43894, 16 h, read-out: MEC
Klebsiella pneumoniae [13] = assay: Potentiation of methicillin-induced antibacterial activity against Klebsiella pneumoniae ATCC 13883 assessed as minimum modulatory concentration up to 32 uM measured after 16 hrs in presence of MIC/4 methicillin; type: functional; conditions: ATCC 13883, 16 h, read-out: MEC
Escherichia coli [14] = assay: Potentiation of methicillin-induced antibacterial activity against Escherichia coli ATCC 43894 assessed as minimum modulatory concentration up to 32 uM measured after 16 hrs in presence of MIC/4 methicillin; type: functional; conditions: ATCC 43894, 16 h, read-out: MEC
Pseudomonas aeruginosa [15] = assay: Potentiation of methicillin-induced antibacterial activity against Pseudomonas aeruginosa ATCC BAA-2108 assessed as minimum modulatory concentration up to 32 uM measured after 16 hrs in presence of MIC/4 methicillin; type: functional; conditions: ATCC BAA-2108, 16 h, read-out: MEC
Streptococcus pyogenes [16] = assay: Potentiation of erythromycin-induced antibacterial activity against Streptococcus pyogenes ATCC 14289 assessed as minimum modulatory concentration up to 32 uM measured after 16 hrs in presence of MIC/4 erythromycin; type: functional; conditions: ATCC 14289, 16 h, read-out: MEC
Pseudomonas aeruginosa [17] = assay: Toxicity in Pseudomonas aeruginosa ATCC BAA-2108 up to 32 uM measured after 16 hrs; type: organism-based; conditions: in vitro
Macrophage cell line [18] = assay: Induction of TNFalpha production in human PBMC-differentiated macrophages after 24 hrs by ELISA; type: cell-based
Klebsiella pneumoniae [19] = assay: Toxicity in Klebsiella pneumoniae ATCC 13883 up to 32 uM measured after 16 hrs; type: organism-based
Enterococcus faecium [20] = assay: Potentiation of ciprofloxacin-induced antibacterial activity against Enterococcus faecium ATCC 700221 assessed as minimum modulatory concentration up to 32 uM measured after 16 hrs in presence of MIC/4 ciprofloxacin; type: functional; conditions: ATCC 700221, 16 h, read-out: MEC
Escherichia coli [21] = assay: Toxicity in Escherichia coli ATCC 43894 up to 32 uM measured after 16 hrs; type: organism-based
Staphylococcus aureus [22] = assay: Potentiation of erythromycin-induced antibacterial activity against Staphylococcus aureus ATCC 33592 assessed as minimum modulatory concentration up to 32 uM measured after 16 hrs in presence of MIC/4 erythromycin; type: functional; conditions: ATCC 33592, 16 h, read-out: MEC
Klebsiella pneumoniae [23] = assay: Potentiation of tetracycline-induced antibacterial activity against Klebsiella pneumoniae ATCC 13883 assessed as minimum modulatory concentration up to 32 uM measured after 16 hrs in presence of MIC/4 tetracycline; type: functional; conditions: ATCC 13883, 16 h, read-out: MEC
Macrophage cell line [24] = assay: Induction of IL-8 production in human PBMC-differentiated macrophages after 24 hrs by ELISA; type: cell-based
Macrophage cell line [25] = assay: Induction of prostaglandin production in human PBMC-differentiated macrophages after 24 hrs by ELISA; type: cell-based
Escherichia coli [26] = assay: Potentiation of erythromycin-induced antibacterial activity against Escherichia coli ATCC 43894 assessed as minimum modulatory concentration up to 32 uM measured after 16 hrs in presence of MIC/4 erythromycin; type: functional; conditions: ATCC 43894, 16 h, read-out: MEC
Streptococcus pyogenes [27] = assay: Potentiation of tetracycline-induced antibacterial activity against Streptococcus pyogenes ATCC 14289 assessed as minimum modulatory concentration up to 32 uM measured after 16 hrs in presence of MIC/4 tetracycline; type: functional; conditions: ATCC 14289, 16 h, read-out: MEC
Staphylococcus aureus [28] = assay: Potentiation of geneticin-induced antibacterial activity against Staphylococcus aureus ATCC 33592 assessed as minimum modulatory concentration up to 32 uM measured after 16 hrs in presence of MIC/4 geneticin; type: functional; conditions: ATCC 33592, 16 h, read-out: MEC
Klebsiella pneumoniae [29] = assay: Potentiation of geneticin-induced antibacterial activity against Klebsiella pneumoniae ATCC 13883 assessed as minimum modulatory concentration up to 32 uM measured after 16 hrs in presence of MIC/4 geneticin; type: functional; conditions: ATCC 13883, 16 h, read-out: MEC
Pseudomonas aeruginosa [30] = assay: Potentiation of ciprofloxacin-induced antibacterial activity against Pseudomonas aeruginosa ATCC BAA-2108 assessed as minimum modulatory concentration up to 32 uM measured after 16 hrs in presence of MIC/4 ciprofloxacin; type: functional; conditions: ATCC BAA-2108, 16 h, read-out: MEC
Macrophage cell line [31] = assay: Induction of IL-1beta production in human PBMC-differentiated macrophages after 24 hrs by ELISA; type: cell-based
Klebsiella pneumoniae [32] = assay: Potentiation of ciprofloxacin-induced antibacterial activity against Klebsiella pneumoniae ATCC 13883 assessed as minimum modulatory concentration up to 32 uM measured after 16 hrs in presence of MIC/4 ciprofloxacin; type: functional; conditions: ATCC 13883, 16 h, read-out: MEC
Pseudomonas aeruginosa [33] = assay: Potentiation of geneticin-induced antibacterial activity against Pseudomonas aeruginosa ATCC BAA-2108 assessed as minimum modulatory concentration up to 32 uM measured after 16 hrs in presence of MIC/4 geneticin; type: functional; conditions: ATCC BAA-2108, 16 h, read-out: MEC

O=C(O)c1ccnc(Cc2ccccc2)c1O
minimal effective concentration (Staphylococcus aureus [1]): > 32 µM | Activity (Enterococcus faecium [2]): Non-Toxic | minimal effective concentration (Streptococcus pyogenes [3]): > 32 µM | minimal effective concentration (Streptococcus pyogenes [4]): > 32 µM | minimal effective concentration (Pseudomonas aeruginosa [5]): > 32 µM | minimal effective concentration (Enterococcus faecium [6]): > 32 µM | minimal effective concentration (Enterococcus faecium [7]): > 32 µM | inhibition (Macrophage cell line [8]): inactive | minimal effective concentration (Escherichia coli [9]): > 32 µM | minimal effective concentration (Klebsiella pneumoniae [10]): > 32 µM | minimal effective concentration (Escherichia coli [11]): > 32 µM | minimal effective concentration (Escherichia coli [12]): > 32 µM | minimal effective concentration (Klebsiella pneumoniae [13]): > 32 µM | minimal effective concentration (Escherichia coli [14]): > 32 µM | minimal effective concentration (Pseudomonas aeruginosa [15]): > 32 µM | minimal effective concentration (Streptococcus pyogenes [16]): > 32 µM | Activity (Pseudomonas aeruginosa [17]): Non-Toxic | Activity (Macrophage cell line [18]): Non-Toxic | Activity (Klebsiella pneumoniae [19]): Non-Toxic | minimal effective concentration (Enterococcus faecium [20]): > 32 µM | Activity (Escherichia coli [21]): Non-Toxic | minimal effective concentration (Staphylococcus aureus [22]): > 32 µM | minimal effective concentration (Klebsiella pneumoniae [23]): > 32 µM | Activity (Macrophage cell line [24]): Non-Toxic | Activity (Macrophage cell line [25]): Non-Toxic | minimal effective concentration (Escherichia coli [26]): > 32 µM | minimal effective concentration (Streptococcus pyogenes [27]): > 32 µM | minimal effective concentration (Staphylococcus aureus [28]): > 32 µM | minimal effective concentration (Klebsiella pneumoniae [29]): > 32 µM | minimal effective concentration (Pseudomonas aeruginosa [30]): > 32 µM | Activity (Macrophage cell line [31]): Non-Toxic | minimal effective concentration (Klebsiella pneumoniae [32]): > 32 µM | minimal effective concentration (Pseudomonas aeruginosa [33]): > 32 µM

C[n+]1cc(O)c(C(=O)[O-])cc1-c1ccccc1
minimal effective concentration (Staphylococcus aureus [1]): > 32 µM | Activity (Enterococcus faecium [2]): Non-Toxic | minimal effective concentration (Streptococcus pyogenes [3]): > 32 µM | minimal effective concentration (Streptococcus pyogenes [4]): > 32 µM | minimal effective concentration (Pseudomonas aeruginosa [5]): > 32 µM | minimal effective concentration (Enterococcus faecium [6]): > 32 µM | minimal effective concentration (Enterococcus faecium [7]): > 32 µM | inhibition (Macrophage cell line [8]): inactive | minimal effective concentration (Escherichia coli [9]): > 32 µM | minimal effective concentration (Klebsiella pneumoniae [10]): > 32 µM | minimal effective concentration (Escherichia coli [11]): > 32 µM | minimal effective concentration (Escherichia coli [12]): > 32 µM | minimal effective concentration (Klebsiella pneumoniae [13]): > 32 µM | minimal effective concentration (Escherichia coli [14]): > 32 µM | minimal effective concentration (Pseudomonas aeruginosa [15]): > 32 µM | minimal effective concentration (Streptococcus pyogenes [16]): > 32 µM | Activity (Pseudomonas aeruginosa [17]): Non-Toxic | Activity (Macrophage cell line [18]): Non-Toxic | Activity (Klebsiella pneumoniae [19]): Non-Toxic | minimal effective concentration (Enterococcus faecium [20]): > 32 µM | Activity (Escherichia coli [21]): Non-Toxic | minimal effective concentration (Staphylococcus aureus [22]): > 32 µM | minimal effective concentration (Klebsiella pneumoniae [23]): > 32 µM | Activity (Macrophage cell line [24]): Non-Toxic | Activity (Macrophage cell line [25]): Non-Toxic | minimal effective concentration (Escherichia coli [26]): > 32 µM | minimal effective concentration (Streptococcus pyogenes [27]): > 32 µM | minimal effective concentration (Staphylococcus aureus [28]): > 32 µM | minimal effective concentration (Klebsiella pneumoniae [29]): > 32 µM | minimal effective concentration (Pseudomonas aeruginosa [30]): > 32 µM | Activity (Macrophage cell line [31]): Non-Toxic | minimal effective concentration (Klebsiella pneumoniae [32]): > 32 µM | minimal effective concentration (Pseudomonas aeruginosa [33]): > 32 µM

C[n+]1ccc(C(=O)[O-])c(O)c1Cc1ccccc1
minimal effective concentration (Staphylococcus aureus [1]): > 32 µM | Activity (Enterococcus faecium [2]): Non-Toxic | minimal effective concentration (Streptococcus pyogenes [3]): > 32 µM | minimal effective concentration (Streptococcus pyogenes [4]): > 32 µM | minimal effective concentration (Pseudomonas aeruginosa [5]): > 32 µM | minimal effective concentration (Enterococcus faecium [6]): > 32 µM | minimal effective concentration (Enterococcus faecium [7]): > 32 µM | inhibition (Macrophage cell line [8]): inactive | minimal effective concentration (Escherichia coli [9]): > 32 µM | minimal effective concentration (Klebsiella pneumoniae [10]): > 32 µM | minimal effective concentration (Escherichia coli [11]): > 32 µM | minimal effective concentration (Escherichia coli [12]): > 32 µM | minimal effective concentration (Klebsiella pneumoniae [13]): > 32 µM | minimal effective concentration (Escherichia coli [14]): > 32 µM | minimal effective concentration (Pseudomonas aeruginosa [15]): > 32 µM | minimal effective concentration (Streptococcus pyogenes [16]): > 32 µM | Activity (Pseudomonas aeruginosa [17]): Non-Toxic | Activity (Macrophage cell line [18]): Non-Toxic | Activity (Klebsiella pneumoniae [19]): Non-Toxic | minimal effective concentration (Enterococcus faecium [20]): > 32 µM | Activity (Escherichia coli [21]): Non-Toxic | minimal effective concentration (Staphylococcus aureus [22]): > 32 µM | minimal effective concentration (Klebsiella pneumoniae [23]): > 32 µM | Activity (Macrophage cell line [24]): Non-Toxic | Activity (Macrophage cell line [25]): Non-Toxic | minimal effective concentration (Escherichia coli [26]): > 32 µM | minimal effective concentration (Streptococcus pyogenes [27]): > 32 µM | minimal effective concentration (Staphylococcus aureus [28]): > 32 µM | minimal effective concentration (Klebsiella pneumoniae [29]): > 32 µM | minimal effective concentration (Pseudomonas aeruginosa [30]): > 32 µM | Activity (Macrophage cell line [31]): Non-Toxic | minimal effective concentration (Klebsiella pneumoniae [32]): > 32 µM | minimal effective concentration (Pseudomonas aeruginosa [33]): > 32 µM
